The target of assay [1] is T1, FXR (Mus musculus, UniProt Q60641).
T1 construct: expression vector containing the full-length FXR receptor; expressed in transfected cells
T1 sequence (Q60641 1-488): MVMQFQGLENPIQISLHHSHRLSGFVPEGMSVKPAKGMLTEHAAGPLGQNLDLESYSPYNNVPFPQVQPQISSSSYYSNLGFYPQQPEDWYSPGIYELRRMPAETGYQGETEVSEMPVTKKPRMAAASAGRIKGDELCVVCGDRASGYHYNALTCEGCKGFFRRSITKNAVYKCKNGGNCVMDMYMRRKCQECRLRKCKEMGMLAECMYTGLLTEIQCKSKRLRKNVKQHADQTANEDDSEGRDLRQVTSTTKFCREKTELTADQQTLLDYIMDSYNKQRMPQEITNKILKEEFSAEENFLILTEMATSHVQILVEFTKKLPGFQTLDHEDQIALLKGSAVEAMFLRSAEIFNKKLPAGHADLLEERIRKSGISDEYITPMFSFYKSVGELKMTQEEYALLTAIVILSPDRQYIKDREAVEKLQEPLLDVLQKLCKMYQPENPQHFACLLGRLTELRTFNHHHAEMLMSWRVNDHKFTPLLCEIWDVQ
T1 sequence (P19793 1-462 partner): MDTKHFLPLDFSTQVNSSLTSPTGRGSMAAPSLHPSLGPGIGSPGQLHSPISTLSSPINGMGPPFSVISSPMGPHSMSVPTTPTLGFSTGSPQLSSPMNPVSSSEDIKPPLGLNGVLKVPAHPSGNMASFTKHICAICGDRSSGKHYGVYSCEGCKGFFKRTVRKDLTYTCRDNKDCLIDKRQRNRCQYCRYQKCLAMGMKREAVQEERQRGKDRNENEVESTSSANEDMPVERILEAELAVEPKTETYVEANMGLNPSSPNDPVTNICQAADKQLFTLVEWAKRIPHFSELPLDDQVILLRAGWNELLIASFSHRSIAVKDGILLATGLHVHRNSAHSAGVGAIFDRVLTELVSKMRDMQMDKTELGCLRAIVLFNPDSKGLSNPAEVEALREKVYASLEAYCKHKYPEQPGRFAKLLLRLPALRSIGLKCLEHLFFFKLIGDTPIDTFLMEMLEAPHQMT
Description: Cell-based screen: full-length FXR expression vector co-transfected with hormone response element luciferase reporter. The note with it: FXR agonist activity. As to the method: (§1) For transfection of these constructs, monkey CV-1 HEPG2 and HEK293T cells were grown in DMEM supplemented with 10% FBS, 50 U/ml penicillin G, and 50 μg/ml streptomycin sulfate at 37° C. in 7% CO2. CV-1 cells (60%-70% confluence, 48-well plate) were cotransfected with 16.6 ng of the appropriate expression vector, 100 ng of reporter plasmid, and 100 ng of pCMX-LacZ in 200 μl of DMEM containing 10% FBS by the N-[1-(2,3-dioleoyloxy)propyl]-N,N,N-trimethylammonium methylsulfate (DOTAP)-mediated procedure. After 24 hr, the medium was replaced, and cells were harvested and assayed for luciferase activity 36-48 hr after transfection. The luciferase activity was normalized to the level of β-galactosidase activity. Each transfection was performed in triplicate and repeated at least three times.
To discover novel small molecule ligands for FXR, a constructed combinatorial library of approximately 10 000 benzopyran compounds was screened using a cell-based assay in a 384 well format (Nicolaou et al. (2000). Natural product-like combinatorial libraries based on privileged structures. 1. General principles and solid-phase synthesis of benzopyrans. J. Am. Chem. Soc. 122, 9939-9953; Natural product-like combinatorial libraries based on privileged structures. 2. Construction of a 10000-membered benzopyran library by directed split-and-pool chemistry using nanokans and optical encoding. J. Am. Chem. Soc. 122, 9954-9967; and Natural product-like combinatorial libraries based on privileged structures. 3. The “libraries from libraries” principle for diversity enhancement of benzopyran libraries. J. Am. Chem. Soc. 122, 9968-9976). This cell-based screen was based on the co-transfection of an expression vector containing the full-length FXR receptor with a reporter vector. The reporter vector contains a hormone response element under a minimal eukaryotic promoter driving a luciferase reporter gene. […] Lead compounds were re-tested and checked for cross-reactivity for the retinoid X receptor (RXR), the heterodimeric partner of FXR. None of the identified compounds had the ability to bind or activate RXR.
Systematic optimization of regions I and II of the prototypical structure through multiple rounds of screening using smaller “focused” chemical libraries defined the requisite features of these domains for high affinity binding to FXR. […] This intelligence gathering was then used to design and synthesize on a solid support a focused library of 94 new compounds for further optimization.

The target of assay [2] is T2, mouse FXR (Mus musculus, UniProt Q60641).
T2 construct: expressed in transfected cells; host or cells: CV-1 (monkey)
T2 sequence (Q60641 1-488): T1 sequence (Q60641 1-488)
T2 sequence (P19793 1-462 partner): T1 sequence (P19793 1-462 partner)
Description: CV-1 transient transfection assay with natural promoters of FXR targets (hIBABP, hPLTP, hMRP-2). The assay is classed as cell-based. Particulars: for activity on natural promoters / concentration of maximum efficacy: hIBABP, hPLTP, hMRP-2 promoters; for activation of IBABP promoter: hIBABP promoter. On the procedure: FIGS. 2A-2F collectively show the results of ligand activation of CV-1 cells co-transfected with FXR constructs pCMX-mFXR and pCMX-hRXR and a luciferase reporter gene containing various promoters as follows: FIG. 2A with a minimal TK promoter, FIG. 2B with a TK-ECRE*6 promoter, FIG. 2C with a TK-ER8*2 promoter, FIG. 2D with HIBABP promoter, FIG. 2E with a hPLTP promoter, or FIG. 2 with a FhMRP-2 promoter.
as §1
For this study, the following gene promoters were used: intestinal bile acid binding protein (IBABP; see, for example, Grober et al. (1999). Identification of a bile acid-responsive element in the human ileal bile acid-binding protein gene. Involvement of the farnesoid X receptor/9-is-retinoic acid receptor heterodimer. J Biol Chem. 274(42), 29749-54>, phospholipid transfer protein (PLTP) (Urizar et al (2000). The farnesoid X-activated receptor mediates bile acid activation of phospholipid transfer protein gene expression. J Biol Chem. 275(50), 39313-7) and multidrug resistance related protein 2 (MRP-2) (Kast et al. (2002), supra), which are all well characterized targets of FXR. The natural promoters of both the IBABP and PLTP genes contain one copy of an inverted repeat with a one base spacing (IR-1) while MRP-2 contains an ER-8 element. […] The most robust activation (28-fold) was seen on the IBABP promoter. Less robust (2-3 fold) but specific activation was observed on the PLTP and MRP-2 promoters.

Where “and” joins values, the source holds several entries; their conditions need not be identical. Equal entries are not always repeated.

For orientation: EC50 means the concentration needed to bring the measured effect to its halfway point. The low end stands for higher potency in that assay, the high end for lower potency in that assay. The molecule `COC(=O)/C=C/c1cccc(N(Cc2ccc(-c3ccc(C(C)(C)C)cc3)cc2)C(=O)C(C)C)c1` [SRI-2] came in with an EC50 in assay [1] of 343 nM. For the same molecule, in assay [2], the “activity on natural promoters” value is “little or no activity”.

Molecule `COC(=O)/C=C/c1cccc(N(Cc2ccc(-c3ccc(N(C)C)cc3)cc2)C(=O)C2CCCCC2)c1` [fexaramine] showed an EC50 in assay [1] of 25 nM. Further, in assay [2], the “activation of IBABP promoter” value was 28 fold and the “concentration of maximum efficacy” value came to 1 µM.

Regarding `COC(=O)/C=C/c1cccc(N(Cc2ccc(-c3ccc4c(c3)OCO4)cc2)C(=O)C2CCCCC2)c1` [fexarine], a half-maximal effect in assay [1] (EC50) was put at 38 nM. Moreover, in assay [2], the “activation of IBABP promoter” value came out at 28 fold and the “concentration of maximum efficacy” value turned out to be 1 µM.

In turn, `COC(=O)/C=C/c1cccc(N(Cc2ccc(-c3ccccc3OC)cc2)C(=O)C(C)C)c1` [SRI-1] displayed an EC50 in assay [1] of 377 nM. Further, the “activity on natural promoters” value in assay [2] is listed as “little or no activity”.

With `CC(C)c1onc(-c2c(Cl)cccc2Cl)c1COc1ccc(/C=C/c2cccc(C(=O)O)c2)c(Cl)c1` [GW4064, reference compound], the EC50 in assay [1] was ~90 nM and 80 nM. Further, in assay [2], the “activation of IBABP promoter” value was 28 fold and the “concentration of maximum efficacy” value was found to be 1 µM.

Regarding `COC(=O)/C=C/c1cccc(N(Cc2ccc(/C=C/c3ccccc3)cc2)C(=O)C2CCCCC2)c1` [fexarene], in assay [1], the EC50 was found to be 36 nM. Further, in assay [2], the “activation of IBABP promoter” value stood at 28 fold and the “concentration of maximum efficacy” value worked out at 1 µM.

Source of the values: patent US7647217B2, “Structure of the farnesoid X receptor ligand binding domain and methods of use therefor” (The Salk Institute for Biological Studies, priority 2002, dated 2010).
